Results from PubChem BioAssay AID256 (DTP/NCI, 2004).
Values joined by “and” are separate entries in the source; they are usually repeats but may differ in a detail not shown here. Identical values can stand only once. Toxic doses and inconclusive results are not listed.

Test system: CD2F1 mice, L1210 leukemia ip, survival T/C
Experiment: NCI In Vivo Anticancer Drug Screen. Data for tumor model L1210 Leukemia (intraperitoneal) in CD2F1 (CDF1) mice
Settings: higher = longer survival
Method in brief: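 In this screen, transplantable tumors were grown in mice given either the compound or its vehicle. Results were expressed as the treated measurement relative to the control measurement.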

[1] = endpoint: mean survival time, dose: 25.0 mg/kg/injection, schedule: Q04DX002 (ip), vehicle: saline
[2] = endpoint: mean survival time, dose: 50.0 mg/kg/injection, schedule: Q04DX002 (ip), vehicle: saline
[3] = endpoint: mean survival time, dose: 100.0 mg/kg/injection, schedule: Q04DX003 (ip), vehicle: saline with Tween-80
[4] = endpoint: mean survival time, dose: 200.0 mg/kg/injection, schedule: Q04DX003 (ip), vehicle: saline with Tween-80
[5] = endpoint: mean survival time, dose: 400.0 mg/kg/injection, schedule: Q04DX003 (ip), vehicle: saline with Tween-80
[6] = endpoint: mean survival time, dose: 100.0 mg/kg/injection, schedule: Q01DX001 (ip), vehicle: saline
[7] = endpoint: mean survival time, dose: 100.0 mg/kg/injection, schedule: Q01DX001 (ip), vehicle: saline with Tween-80
[8] = endpoint: mean survival time, dose: 200.0 mg/kg/injection, schedule: Q01DX001 (ip), vehicle: saline with Tween-80
[9] = endpoint: mean survival time, dose: 200.0 mg/kg/injection, schedule: Q01DX001 (ip), vehicle: saline
[10] = endpoint: mean survival time, dose: 400.0 mg/kg/injection, schedule: Q01DX001 (ip), vehicle: saline
[11] = endpoint: mean survival time, dose: 100.0 mg/kg/injection, schedule: Q01DX009 (ip), vehicle: Klucel (hydroxypropylcellulose) (HPC)
[12] = endpoint: mean survival time, dose: 200.0 mg/kg/injection, schedule: Q01DX009 (ip), vehicle: Klucel (hydroxypropylcellulose) (HPC)
[13] = endpoint: mean survival time, dose: 400.0 mg/kg/injection, schedule: Q01DX001 (ip), vehicle: saline with Tween-80
[14] = endpoint: mean survival time, dose: 100.0 mg/kg/injection, schedule: Q01DX009 (ip), vehicle: saline with Tween-80
[15] = endpoint: mean survival time, dose: 200.0 mg/kg/injection, schedule: Q01DX009 (ip), vehicle: saline with Tween-80

COc1cc2c(cc1O)-c1cc3ccc(OC)c(OC)c3c[n+]1CC2
T/C [1]: 111 % of control
T/C (endpoint: mean survival time, dose: 25.0 mg/kg/injection, schedule: Q04DX003 (ip), vehicle: suspension in saline): 94 % of control
T/C [2]: 97 % of control
T/C (endpoint: mean survival time, dose: 50.0 mg/kg/injection, schedule: Q04DX003 (ip), vehicle: suspension in saline): 90 % of control
T/C (endpoint: mean survival time, dose: 100.0 mg/kg/injection, schedule: Q04DX002 (ip), vehicle: saline): 104 % of control
T/C (endpoint: mean survival time, dose: 100.0 mg/kg/injection, schedule: Q04DX003 (ip), vehicle: suspension in saline): 102 % of control
T/C (endpoint: mean survival time, dose: 200.0 mg/kg/injection, schedule: Q04DX002 (ip), vehicle: saline): 104 % of control
T/C (endpoint: mean survival time, dose: 200.0 mg/kg/injection, schedule: Q04DX003 (ip), vehicle: suspension in saline): 109 % of control

NC(CNC(=O)CBr)C(=O)O (centres undefined)
T/C (endpoint: median survival time, dose: 3.0 mg/kg/injection, schedule: Q01DX009 (ip), vehicle: water): 111 % of control
T/C (endpoint: median survival time, dose: 6.0 mg/kg/injection, schedule: Q01DX009 (ip), vehicle: water): 122 % of control and 124 % of control
T/C (endpoint: median survival time, dose: 12.5 mg/kg/injection, schedule: Q01DX009 (ip), vehicle: water): 122 % of control
T/C (endpoint: median survival time, dose: 24.0 mg/kg/injection, schedule: Q01DX009 (ip), vehicle: water): 156 % of control
T/C (endpoint: median survival time, dose: 25.0 mg/kg/injection, schedule: Q01DX009 (ip), vehicle: water): 120 % of control
T/C (endpoint: median survival time, dose: 48.0 mg/kg/injection, schedule: Q01DX009 (ip), vehicle: water): 156 % of control

O=S(CS(=O)c1ccccc1)c1ccccc1 (centres undefined)
T/C [3]: 100 % of control
T/C [4]: 109 % of control
T/C [5]: 105 % of control

NCC(OC1CCCCC1)C(Cl)(Cl)Cl (centres undefined)
T/C [3]: 101 % of control
T/C [4]: 93 % of control

C1CC[N-]CC1.C1CC[N-]CC1.N#C[S-].N#C[S-].[Cu]
T/C (endpoint: mean survival time, dose: 2.5 mg/kg/injection, schedule: Q04DX003 (ip), vehicle: saline with Tween-80): 98 % of control
T/C (endpoint: mean survival time, dose: 5.0 mg/kg/injection, schedule: Q04DX003 (ip), vehicle: saline with Tween-80): 92 % of control

C[N+](C)(C)CCC[n+]1ccc(CCn2ccc3ccccc32)cc1
T/C [6]: 124 % of control

CSc1ncc(C(=O)O)c(SC(C)C)n1
T/C (endpoint: mean survival time, dose: 50.0 mg/kg/injection, schedule: Q04DX003 (ip), vehicle: saline with Tween-80): 91 % of control
T/C [7]: 102 % of control
T/C [3]: 93 % of control
T/C [8]: 92 % of control
T/C [4]: 87 % of control

c1ccc(P(c2cccc3ccccc23)c2cccc3ccccc23)cc1
T/C [6]: 93 % of control
T/C [9]: 93 % of control
T/C [10]: 91 % of control

Cc1cncn1Cc1ccccc1
T/C (endpoint: mean survival time, dose: 50.0 mg/kg/injection, schedule: Q01DX009 (ip), vehicle: Klucel (hydroxypropylcellulose) (HPC)): 94 % of control
T/C [11]: 108 % of control
T/C [12]: 103 % of control

COc1cc(-c2ccc(N)c(OC)c2)ccc1N
T/C [7]: 100 % of control
T/C (endpoint: mean survival time, dose: 100.0 mg/kg/injection, schedule: Q01DX009 (ip), vehicle: saline): 96 % of control and 100 % of control
T/C (endpoint: mean survival time, dose: 100.0 mg/kg/injection, schedule: Q04DX002 (ip), vehicle: saline with Tween-80): 102 % of control
T/C (endpoint: mean survival time, dose: 100.0 mg/kg/injection, schedule: Q04DX003 (ip), vehicle: saline): 97 % of control
T/C [8]: 96 % of control
T/C (endpoint: mean survival time, dose: 200.0 mg/kg/injection, schedule: Q01DX009 (ip), vehicle: saline): 100 % of control and 102 % of control
T/C (endpoint: mean survival time, dose: 200.0 mg/kg/injection, schedule: Q04DX002 (ip), vehicle: saline with Tween-80): 100 % of control
T/C (endpoint: mean survival time, dose: 200.0 mg/kg/injection, schedule: Q04DX003 (ip), vehicle: saline): 94 % of control
T/C [13]: 103 % of control
T/C (endpoint: mean survival time, dose: 400.0 mg/kg/injection, schedule: Q04DX002 (ip), vehicle: saline with Tween-80): 100 % of control
T/C (endpoint: mean survival time, dose: 400.0 mg/kg/injection, schedule: Q04DX003 (ip), vehicle: saline): 103 % of control

O=C(N/N=C/c1ccccc1)c1ccc(Cl)cc1Cl
T/C (endpoint: mean survival time, dose: 100.0 mg/kg/injection, schedule: Q01DX001 (ip), vehicle: Klucel (hydroxypropylcellulose) (HPC)): 100 % of control
T/C [11]: 100 % of control
T/C (endpoint: mean survival time, dose: 200.0 mg/kg/injection, schedule: Q01DX001 (ip), vehicle: Klucel (hydroxypropylcellulose) (HPC)): 97 % of control
T/C [12]: 94 % of control
T/C (endpoint: mean survival time, dose: 400.0 mg/kg/injection, schedule: Q01DX001 (ip), vehicle: Klucel (hydroxypropylcellulose) (HPC)): 101 % of control
T/C (endpoint: mean survival time, dose: 400.0 mg/kg/injection, schedule: Q01DX009 (ip), vehicle: Klucel (hydroxypropylcellulose) (HPC)): 91 % of control

ClC=P(c1ccccc1)(c1ccccc1)c1ccccc1
T/C [14]: 96 % of control
T/C [15]: 92 % of control

C[S+](C)c1ccccc1
T/C (endpoint: mean survival time, dose: 12.5 mg/kg/injection, schedule: Q04DX002 (ip), vehicle: saline): 100 % of control
T/C [1]: 96 % of control
T/C [2]: 100 % of control

Cc1ccccc1N=Cc1ccc(N(C)C)cc1
T/C [14]: 96 % of control
T/C [3]: 97 % of control
T/C [15]: 95 % of control
T/C [4]: 103 % of control
T/C (endpoint: mean survival time, dose: 400.0 mg/kg/injection, schedule: Q01DX009 (ip), vehicle: saline with Tween-80): 90 % of control
T/C [5]: 98 % of control

Nc1ncnc2c1ncn2CCC(CO)CO
T/C [9]: 102 % of control
T/C [10]: 107 % of control

CC(=O)c1ccc(Cc2ccc(C(C)=O)cc2)cc1
T/C (endpoint: mean survival time, dose: 100.0 mg/kg/injection, schedule: Q04DX003 (ip), vehicle: Klucel (hydroxypropylcellulose) (HPC)): 103 % of control
T/C (endpoint: mean survival time, dose: 200.0 mg/kg/injection, schedule: Q04DX003 (ip), vehicle: Klucel (hydroxypropylcellulose) (HPC)): 98 % of control
T/C (endpoint: mean survival time, dose: 400.0 mg/kg/injection, schedule: Q04DX003 (ip), vehicle: Klucel (hydroxypropylcellulose) (HPC)): 97 % of control

C=C(C)C1CCC2(C(=O)OC)CCC3(C)C(CCC4C5(C)CCC(OC6CCCCO6)C(C)(C)C5CCC43C)C12 (centres undefined)
T/C (endpoint: mean survival time, dose: 6.25 mg/kg/injection, schedule: Q04DX002 (ip), vehicle: saline with Tween-80): 103 % of control
T/C (endpoint: mean survival time, dose: 12.5 mg/kg/injection, schedule: Q04DX002 (ip), vehicle: saline with Tween-80): 95 % of control
T/C (endpoint: mean survival time, dose: 25.0 mg/kg/injection, schedule: Q04DX002 (ip), vehicle: saline with Tween-80): 86 % of control

N#CC[CH2][Sn]([I])([c]1ccccc1)[c]1ccccc1
T/C (endpoint: mean survival time, dose: 6.25 mg/kg/injection, schedule: Q04DX003 (ip), vehicle: saline with Tween-80): 97 % of control
T/C (endpoint: mean survival time, dose: 12.5 mg/kg/injection, schedule: Q04DX003 (ip), vehicle: saline with Tween-80): 97 % of control

CC(=O)C(CCCCCCCCCCC(C(C)=O)C(C)=O)C(C)=O
T/C [7]: 93 % of control
T/C [8]: 101 % of control
T/C [13]: 94 % of control

C=C(C)C1(Cc2ccccc2)C(=O)NC(=O)NC1=O
T/C (endpoint: mean survival time, dose: 5.0 mg/kg/injection, schedule: Q01DX001 (ip), vehicle: saline): 100 % of control
T/C (endpoint: mean survival time, dose: 10.0 mg/kg/injection, schedule: Q01DX001 (ip), vehicle: saline): 97 % of control
T/C (endpoint: mean survival time, dose: 20.0 mg/kg/injection, schedule: Q01DX001 (ip), vehicle: saline): 100 % of control
T/C (endpoint: mean survival time, dose: 40.0 mg/kg/injection, schedule: Q01DX001 (ip), vehicle: saline): 102 % of control

CC(CC(=O)O)c1ccc(Cl)cc1 (centres undefined)
T/C [3]: 101 % of control
T/C [4]: 101 % of control
T/C [5]: 101 % of control

OCC1OC(n2ccn(C3OC(CO)C(O)C3O)c2=S)C(O)C1O (centres undefined)
T/C (endpoint: mean survival time, dose: 12.5 mg/kg/injection, schedule: Q01DX005 (ip), vehicle: water): 98 % of control
T/C (endpoint: mean survival time, dose: 25.0 mg/kg/injection, schedule: Q01DX005 (ip), vehicle: water): 106 % of control
T/C (endpoint: mean survival time, dose: 50.0 mg/kg/injection, schedule: Q01DX005 (ip), vehicle: water): 96 % of control
T/C (endpoint: mean survival time, dose: 100.0 mg/kg/injection, schedule: Q01DX005 (ip), vehicle: water): 98 % of control
T/C (endpoint: mean survival time, dose: 200.0 mg/kg/injection, schedule: Q01DX005 (ip), vehicle: water): 102 % of control

CC(=O)OCC1OC2OC(C)(C)OC2C2OC(C)(C)OC12 (centres undefined)
T/C [3]: 104 % of control
T/C [4]: 101 % of control
T/C [5]: 106 % of control
